PubChem BioAssay (NCI)
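Values below derive from 48-hour exposures of cells grown in 96-well plates, with endpoints linearly interpolated between the two concentrations bracketing the appropriate inhibition level. The concentration for 50% growth inhibition is given as GI50. TGI: concentration producing complete growth inhibition.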

Assays:
Assay in all cases: NCI-60 cell line screen, 48 h
[1] = tested on: SF-268 CNS
[2] = tested on: UACC-257 melanoma
[3] = tested on: MDA-MB-435
[4] = tested on: LOX IMVI melanoma
[5] = tested on: SF-295 CNS
[6] = tested on: KM12 colon
[7] = tested on: COLO 205 colon
[8] = tested on: A549 NSCLC
[9] = tested on: MCF7 breast
[10] = tested on: TK-10 renal
[11] = tested on: U251 CNS
[12] = tested on: SK-MEL-2 melanoma
[13] = tested on: NCI-H23 lung
[14] = tested on: UACC-62 melanoma
[15] = tested on: BT-549 breast
[16] = tested on: SK-MEL-5 melanoma
[17] = tested on: RPMI-8226 leukemia
[18] = tested on: SN12C renal
[19] = tested on: EKVX NSCLC
[20] = tested on: SNB-19 CNS
[21] = tested on: NCI-H522 lung
[22] = tested on: HT29 colon
[23] = tested on: MOLT-4 leukemia
[24] = tested on: HOP-92 NSCLC
[25] = tested on: RXF 393 renal
[26] = tested on: HCT-116 colon
[27] = tested on: ACHN renal
[28] = tested on: HCC-2998 colon
[29] = tested on: SNB-75 CNS
[30] = tested on: CAKI-1 renal
[31] = tested on: OVCAR-4 ovarian
[32] = tested on: HS 578T breast
[33] = tested on: HCT-15 colon
[34] = tested on: HOP-62 NSCLC
[35] = tested on: SW-620 colon
[36] = tested on: SK-MEL-28 melanoma
[37] = tested on: UO-31 renal
[38] = tested on: IGROV1 ovarian
[39] = tested on: MALME-3M melanoma
[40] = tested on: SF-539 CNS
[41] = tested on: SK-OV-3 ovarian
[42] = tested on: T-47D breast
[43] = tested on: PC-3 prostate
[44] = tested on: DU-145 prostate
[45] = tested on: CCRF-CEM leukemia
[46] = tested on: SR leukemia
[47] = tested on: NCI-H226 lung
[48] = tested on: A498 renal
[49] = tested on: NCI/ADR-RES ovarian
[50] = tested on: 786-0 renal
[51] = tested on: OVCAR-3 ovarian
[52] = tested on: NCI-H460 lung
[53] = tested on: MDA-MB-231 breast
[54] = tested on: M14 melanoma
[55] = tested on: OVCAR-5 ovarian
[56] = tested on: OVCAR-8 ovarian

`Oc1ccc(-c2cn3ccsc3n2)cc1O` was tested. Which GI50 [1] did it give?
The GI50 was 27.8 µM.

What about the TGI [1] of the same compound?
Its TGI is over 100 µM.

And the GI50 [2]?
The GI50 was over 100 µM.

What about the TGI [2] of the same compound?
The TGI was over 100 µM.

And the GI50 [3]?
Its GI50 is 22.1 µM.

And the TGI [3]?
Its TGI is 47.8 µM.

And the GI50 [4]?
Its GI50 is 18.1 µM.

And the TGI [4]?
The TGI was 41.7 µM.

And the GI50 [5]?
Its GI50 is 69.6 µM.

What about the TGI [5] of the same compound?
The TGI was over 100 µM.

And the GI50 [6]?
Its GI50 is 27.7 µM.

What about the TGI [6] of the same compound?
The TGI was over 100 µM.

What about the GI50 [7] of the same compound?
Its GI50 is 29.9 µM.

What about the TGI [7] of the same compound?
The TGI was over 100 µM.

What about the GI50 [8] of the same compound?
The GI50 was 72.8 µM.

What about the TGI [8] of the same compound?
The TGI was over 100 µM.

And the GI50 [9]?
Its GI50 is 18.3 µM.

What about the TGI [9] of the same compound?
The TGI was over 100 µM.

What about the GI50 [10] of the same compound?
Its GI50 is 63.1 µM.

What about the TGI [10] of the same compound?
The TGI was over 100 µM.

And the GI50 [11]?
The GI50 was 21.5 µM.

What about the TGI [11] of the same compound?
Its TGI is 46.7 µM.

What about the GI50 [12] of the same compound?
The GI50 was 35.1 µM.

What about the TGI [12] of the same compound?
The TGI was over 100 µM.

What about the GI50 [13] of the same compound?
The GI50 was 46.3 µM.

What about the TGI [13] of the same compound?
Its TGI is over 100 µM.

What about the GI50 [14] of the same compound?
The GI50 was 19.6 µM.

And the TGI [14]?
The TGI was 43.9 µM.

And the GI50 [15]?
The GI50 was 10.2 µM.

What about the TGI [15] of the same compound?
The TGI was 30.7 µM.

What about the GI50 [16] of the same compound?
Its GI50 is 10.5 µM.

What about the TGI [16] of the same compound?
The TGI was 26.7 µM.

What about the GI50 [17] of the same compound?
Its GI50 is 12.1 µM.

What about the TGI [17] of the same compound?
The TGI was 65.4 µM.

And the GI50 [18]?
The GI50 was 18.5 µM.

What about the TGI [18] of the same compound?
Its TGI is 37.8 µM.

What about the GI50 [19] of the same compound?
Its GI50 is 16.7 µM.

What about the TGI [19] of the same compound?
The TGI was 38.9 µM.

And the GI50 [20]?
Its GI50 is 49.9 µM.

And the TGI [20]?
Its TGI is over 100 µM.

What about the GI50 [21] of the same compound?
The GI50 was 11.5 µM.

And the TGI [21]?
The TGI was 33.2 µM.

And the GI50 [22]?
The GI50 was 29.5 µM.

What about the TGI [22] of the same compound?
The TGI was over 100 µM.

And the GI50 [23]?
The GI50 was 11 µM.

And the TGI [23]?
Its TGI is 55.4 µM.

What about the GI50 [24] of the same compound?
Its GI50 is 23 µM.

What about the TGI [24] of the same compound?
Its TGI is 78.5 µM.

And the GI50 [25]?
Its GI50 is 78 µM.

And the TGI [25]?
Its TGI is over 100 µM.

And the GI50 [26]?
Its GI50 is 18.1 µM.

And the TGI [26]?
The TGI was 37.8 µM.

What about the GI50 [27] of the same compound?
Its GI50 is 22 µM.

And the TGI [27]?
The TGI was 56.3 µM.

What about the GI50 [28] of the same compound?
The GI50 was 78 µM.

And the TGI [28]?
The TGI was over 100 µM.

And the GI50 [29]?
Its GI50 is 55.1 µM.

What about the TGI [29] of the same compound?
Its TGI is over 100 µM.

And the GI50 [30]?
Its GI50 is 26.3 µM.

What about the TGI [30] of the same compound?
Its TGI is over 100 µM.

And the GI50 [31]?
Its GI50 is 32.7 µM.

What about the TGI [31] of the same compound?
The TGI was over 100 µM.

What about the GI50 [32] of the same compound?
The GI50 was 203 nM.

And the TGI [32]?
Its TGI is 22.4 µM.

And the GI50 [33]?
The GI50 was 37.8 µM.

What about the TGI [33] of the same compound?
The TGI was over 100 µM.

And the GI50 [34]?
Its GI50 is 43.2 µM.

What about the TGI [34] of the same compound?
The TGI was over 100 µM.

And the GI50 [35]?
Its GI50 is 11.5 µM.

And the TGI [35]?
Its TGI is 70.5 µM.

And the GI50 [36]?
Its GI50 is 32.9 µM.

And the TGI [36]?
The TGI was over 100 µM.

And the GI50 [37]?
Its GI50 is 16 µM.

What about the TGI [37] of the same compound?
The TGI was over 100 µM.

And the GI50 [38]?
Its GI50 is 21.3 µM.

And the TGI [38]?
The TGI was over 100 µM.

And the GI50 [39]?
Its GI50 is 30.8 µM.

What about the TGI [39] of the same compound?
The TGI was 84.4 µM.

What about the GI50 [40] of the same compound?
Its GI50 is 19.7 µM.

And the TGI [40]?
Its TGI is 79.6 µM.

And the GI50 [41]?
Its GI50 is over 100 µM.

What about the TGI [41] of the same compound?
Its TGI is over 100 µM.

What about the GI50 [42] of the same compound?
Its GI50 is 32.4 µM.

What about the TGI [42] of the same compound?
The TGI was over 100 µM.

What about the GI50 [43] of the same compound?
Its GI50 is 21.7 µM.

What about the TGI [43] of the same compound?
The TGI was over 100 µM.

What about the GI50 [44] of the same compound?
Its GI50 is 28.7 µM.

What about the TGI [44] of the same compound?
The TGI was over 100 µM.

What about the GI50 [45] of the same compound?
The GI50 was 4.41 µM.

And the TGI [45]?
The TGI was 29.6 µM.

And the GI50 [46]?
Its GI50 is 10.6 µM.

And the TGI [46]?
Its TGI is 41.4 µM.

What about the GI50 [47] of the same compound?
The GI50 was 20.9 µM.

And the TGI [47]?
The TGI was 60.2 µM.

And the GI50 [48]?
The GI50 was 25.9 µM.

And the TGI [48]?
The TGI was 83.6 µM.

And the GI50 [49]?
The GI50 was over 100 µM.

What about the TGI [49] of the same compound?
Its TGI is over 100 µM.

And the GI50 [50]?
The GI50 was 36.6 µM.

And the TGI [50]?
Its TGI is over 100 µM.

And the GI50 [51]?
The GI50 was 15.6 µM.

And the TGI [51]?
Its TGI is 46.4 µM.

And the GI50 [52]?
Its GI50 is 45.8 µM.

What about the TGI [52] of the same compound?
The TGI was over 100 µM.

And the GI50 [53]?
Its GI50 is 17.6 µM.

And the TGI [53]?
The TGI was 44.2 µM.

What about the GI50 [54] of the same compound?
The GI50 was 26.1 µM.

What about the TGI [54] of the same compound?
Its TGI is 75.3 µM.

And the GI50 [55]?
The GI50 was 38.9 µM.

What about the TGI [55] of the same compound?
Its TGI is over 100 µM.

What about the GI50 [56] of the same compound?
Its GI50 is 35.8 µM.

And the TGI [56]?
Its TGI is over 100 µM.
